Source: ChEMBL document CHEMBL5375982, “How Modulator Binding at the Amyloidβ-γ-Secretase Interface Enhances Substrate Binding and Attenuates Membrane Distortion” (J Med Chem, 2023)
Active and inactive are the calls of the source. No cut-off for these calls is given here.

Legend:
Format in all cases: cell-based
[1] = molecular target: T1, Gamma-secretase (Homo sapiens) (UniProt Q96BI3+Q9NZ42+Q8WW43+P49768+Q92542+P49810); assay: Modulation of gamma-secretase activity in HEK293T cells transfected with APP C99 K28E mutant assessed as increase in processivity at 10 uM incubated for 24 to 30 hrs by ELISA; details: time 24-30 hrs
[2] = molecular target: T1, Gamma-secretase (Homo sapiens); assay: Modulation of gamma-secretase activity in HEK293T cells transfected with wild type APP C99 assessed as increase in processivity at 10 uM incubated for 24 to 30 hrs by ELISA; details: filed as modulator, time 24-30 hrs
[3] = molecular target: T1, Gamma-secretase (Homo sapiens); assay: Modulation of gamma-secretase activity in HEK293T cells transfected with APP C99 K28D mutant assessed as […] in amyloidbeta37 to amyloidbeta40 ratio at 10 uM incubated for 24 to 30 hrs by ELISA; details: filed as modulator, time 24-30 hrs
[4] = molecular target: T1, Gamma-secretase (Homo sapiens); assay: Modulation of gamma-secretase activity in HEK293T cells transfected with APP C99 K28D mutant assessed as increase in processivity at 10 uM incubated for 24 to 30 hrs by ELISA; details: time 24-30 hrs
[5] = molecular target: T1, Gamma-secretase (Homo sapiens); assay: Modulation of gamma-secretase activity in HEK293T cells transfected with APP C99 K28E mutant assessed as […] in amyloidbeta37 to amyloidbeta40 ratio at 10 uM incubated for 24 to 30 hrs by ELISA; details: filed as modulator, time 24-30 hrs
[6] = molecular target: T1, Gamma-secretase (Homo sapiens); assay: Modulation of gamma-secretase activity in HEK293T cells transfected with APP C99 K28R mutant assessed as increase in processivity at 10 uM incubated for 24 to 30 hrs by ELISA; details: filed as modulator, time 24-30 hrs

- Activity [1]: inactive
- Activity [2]: Active
- Activity [3]: Active
- Activity [4]: inactive
- Activity [5]: Active
- Activity [6]: Active
Compound: COc1cc(/C=C2\CCCN([C@@H](C)c3ccc(F)cc3)C2=O)ccc1-n1cnc(C)c1
